ChEMBL document CHEMBL3885881, “DrugMatrix”

Species: Rattus norvegicus
Experiment: DrugMatrix - Regimen: Daily Repeat
Type: toxicity, organism-based, Sprague-Dawley
Set-up: regimen Daily Repeat, gender Male, age 6-8 weeks
Conditions: in vivo, po, route oral GAVAGE, vehicle 100 % WATER; for ABSOLUTE BASOPHIL / ABSOLUTE EOSINOPHIL / ABSOLUTE LYMPHOCYTE / ABSOLUTE MONOCYTE / ABSOLUTE SEGMENTED NEUTROPHIL / BASOPHIL / EOSINOPHIL / ERYTHROCYTE COUNT / HEMATOCRIT / HEMOGLOBIN / LEUKOCYTE COUNT / LYMPHOCYTE / MEAN CORPUSCULAR HEMOGLOBIN / MEAN CORPUSCULAR HEMOGLOBIN CONCENTRATION / MEAN CORPUSCULAR VOLUME / MONOCYTE / NEUTROPHIL / NUCLEATED RED BLOOD CELLS / PLATELET COUNT: tissue Blood; for ALANINE AMINOTRANSFERASE / ALBUMIN / ALKALINE PHOSPHATASE / ASPARTATE AMINOTRANSFERASE / BLOOD UREA NITROGEN / CARBON DIOXIDE / CHLORIDE / CHOLESTEROL / CREATINE PHOSPHOKINASE / CREATININE / GLUCOSE / LACTATE DEHYDROGENASE / LIPASE / PHOSPHORUS / POTASSIUM / SODIUM / TOTAL BILIRUBIN / TOTAL PROTEIN / URIC ACID: tissue Plasma
[1] = 0 mg/kg, 72 h, dose level Control, time 3 day
[2] = 0 mg/kg, 120 h, dose level Control, time 5 day
[3] = 63 mg/kg, 72 h, dose level High, time 3 day

## CNCCC=C1c2ccccc2CCc2ccccc21 [NORTRIPTYLINE]
[1]
  ABSOLUTE BASOPHIL: 0 CELLS/uL
  ABSOLUTE EOSINOPHIL: 123.17 CELLS/uL
  ABSOLUTE LYMPHOCYTE: 12677.83 CELLS/uL
  ABSOLUTE MONOCYTE: 66.17 CELLS/uL
  ABSOLUTE SEGMENTED NEUTROPHIL: 1149.5 CELLS/uL
  BASOPHIL: 0%
  EOSINOPHIL: 0.83%
  ERYTHROCYTE COUNT: 5.26 x10E6/uL
  HEMATOCRIT: 33.07%
  HEMOGLOBIN: 13.43 G/DL
  LEUKOCYTE COUNT: 14.02 x10E3/uL
  LYMPHOCYTE: 90.17%
  MEAN CORPUSCULAR HEMOGLOBIN: 25.62 pg
  MEAN CORPUSCULAR HEMOGLOBIN CONCENTRATION: 40.65 G/DL
  MEAN CORPUSCULAR VOLUME: 63 fL
  MONOCYTE: 0.5%
  NEUTROPHIL: 8.5%
  NUCLEATED RED BLOOD CELLS: 0.17 /100WBC
  PLATELET COUNT: 1142.83 x10E3/uL
  ALANINE AMINOTRANSFERASE: 45.17 u/L
  ALBUMIN: 3.78 G/DL
  ALKALINE PHOSPHATASE: 340.17 u/L
  ASPARTATE AMINOTRANSFERASE: 77.33 u/L
  BLOOD UREA NITROGEN: 14.67 mg/dL
  CARBON DIOXIDE: 28.67 mmol/L
  CHLORIDE: 101.17 MEQ/L
  CHOLESTEROL: 77.67 mg/dL
  CREATINE PHOSPHOKINASE: 263.67 u/L
  CREATININE: 0.15 mg/dL
  GLUCOSE: 169.33 mg/dL
  LACTATE DEHYDROGENASE: 230 u/L
  LIPASE: 9.67 u/L
  PHOSPHORUS: 11.8 mg/dL
  POTASSIUM: 5.91 MEQ/L
  SODIUM: 142.88 MEQ/L
  TOTAL BILIRUBIN: 0.22 mg/dL
  TOTAL PROTEIN: 5.7 G/DL
  URIC ACID: 1.35 mg/dL
[2]
  ABSOLUTE BASOPHIL: 0 CELLS/uL
  ABSOLUTE EOSINOPHIL: 125 CELLS/uL
  ABSOLUTE LYMPHOCYTE: 13809 CELLS/uL
  ABSOLUTE MONOCYTE: 351 CELLS/uL
  ABSOLUTE SEGMENTED NEUTROPHIL: 1581.67 CELLS/uL
  BASOPHIL: 0%
  EOSINOPHIL: 0.67%
  ERYTHROCYTE COUNT: 5.53 x10E6/uL
  HEMATOCRIT: 34.83%
  HEMOGLOBIN: 13.9 G/DL
  LEUKOCYTE COUNT: 15.87 x10E3/uL
  LYMPHOCYTE: 87.5%
  MEAN CORPUSCULAR HEMOGLOBIN: 25.25 pg
  MEAN CORPUSCULAR HEMOGLOBIN CONCENTRATION: 40.08 G/DL
  MEAN CORPUSCULAR VOLUME: 63.05 fL
  MONOCYTE: 2.17%
  NEUTROPHIL: 9.67%
  NUCLEATED RED BLOOD CELLS: 0 /100WBC
  PLATELET COUNT: 1044 x10E3/uL
  ALANINE AMINOTRANSFERASE: 50.67 u/L
  ALBUMIN: 4.33 G/DL
  ALKALINE PHOSPHATASE: 395 u/L
  ASPARTATE AMINOTRANSFERASE: 86 u/L
  BLOOD UREA NITROGEN: 15.33 mg/dL
  CARBON DIOXIDE: 29.33 mmol/L
  CHLORIDE: 101.5 MEQ/L
  CHOLESTEROL: 71.33 mg/dL
  CREATINE PHOSPHOKINASE: 323.17 u/L
  CREATININE: 0.18 mg/dL
  GLUCOSE: 145.67 mg/dL
  LACTATE DEHYDROGENASE: 389.5 u/L
  LIPASE: 9.83 u/L
  PHOSPHORUS: 11.35 mg/dL
  POTASSIUM: 6.39 MEQ/L
  SODIUM: 142.77 MEQ/L
  TOTAL BILIRUBIN: 0.18 mg/dL
  TOTAL PROTEIN: 6.1 G/DL
  URIC ACID: 1.52 mg/dL
[3]
  ABSOLUTE BASOPHIL: 0 CELLS/uL
  ABSOLUTE EOSINOPHIL: 63 CELLS/uL
  ABSOLUTE LYMPHOCYTE: 15345.67 CELLS/uL
  ABSOLUTE MONOCYTE: 215.33 CELLS/uL
  ABSOLUTE SEGMENTED NEUTROPHIL: 642.67 CELLS/uL
  BASOPHIL: 0%
  EOSINOPHIL: 0.33%
  ERYTHROCYTE COUNT: 6.2 x10E6/uL
  HEMATOCRIT: 38.33%
  HEMOGLOBIN: 14.97 G/DL
  LEUKOCYTE COUNT: 16.27 x10E3/uL
  LYMPHOCYTE: 94.33%
  MEAN CORPUSCULAR HEMOGLOBIN: 24.13 pg
  MEAN CORPUSCULAR HEMOGLOBIN CONCENTRATION: 39.07 G/DL
  MEAN CORPUSCULAR VOLUME: 61.83 fL
  MONOCYTE: 1.33%
  NEUTROPHIL: 4%
  NUCLEATED RED BLOOD CELLS: 1 /100WBC
  PLATELET COUNT: 1320 x10E3/uL
  ALANINE AMINOTRANSFERASE: 47.33 u/L
  ALBUMIN: 3.83 G/DL
  ALKALINE PHOSPHATASE: 416.67 u/L
  ASPARTATE AMINOTRANSFERASE: 75 u/L
  BLOOD UREA NITROGEN: 15 mg/dL
  CARBON DIOXIDE: 29.33 mmol/L
  CHLORIDE: 101 MEQ/L
  CHOLESTEROL: 74.67 mg/dL
  CREATINE PHOSPHOKINASE: 194 u/L
  CREATININE: 0.17 mg/dL
  GLUCOSE: 184 mg/dL
  LACTATE DEHYDROGENASE: 108 u/L
  LIPASE: 9 u/L
  PHOSPHORUS: 13.13 mg/dL
  POTASSIUM: 6.61 MEQ/L
  SODIUM: 143.73 MEQ/L
  TOTAL BILIRUBIN: 0.2 mg/dL
  TOTAL PROTEIN: 5.63 G/DL
  URIC ACID: 1.9 mg/dL
